Test results as given in article PMC9573605, “Exploring Nitric Oxide (NO)-Releasing Celecoxib Derivatives as Modulators of Radioresponse in Pheochromocytoma Cells” (Molecules, 2022).

Test: Conversion in NO-assay buffer followed by UPLC
Format: physicochemical
Conditions: 37 °C
Protocol: The time-dependent degradation behavior of compounds 4f, 5a–f, and 6a–d as well as celecoxib was followed by UPLC analysis over a time course of 8 days (Figure 4). For that, compounds were incubated at 37 °C in the presence or absence of cysteine in the assay buffer used for the Griess assay. Samples were withdrawn at distinct time points (1, 5, 23, 47, 70, and 191 h), diluted into a mixture of acetonitrile/water, and analyzed.
The time-dependent conversion of NO-COXIBs 5a–f and 6a–d as well as reference compounds 4f and celecoxib in the presence or absence of cysteine in assay buffer was investigated by following the degradation of intact compound and identification of selected degradation products by UPLC. For that, samples were incubated at 37 °C in the assay buffer in the presence or absence of cysteine and at the indicated time point; 5 µL assay buffer of each sample was withdrawn and diluted with 45 µL MeCN/water (50/50 v/v). The samples were thoroughly vortexed and then subjected to UPLC analysis. All samples of one time point were analyzed within a total analysis time of approximately 2.5 h. Conversion was monitored at 254 nm using the following UPLC system: column Aquity UPLC® HSS C18 column (Waters Corporation, Milford, MA, USA; 100 × 2.1 mm, 1.8 µm, 130 Å), UPLC H-Class (Waters Corporation, Milford, MA, USA): quaternary gradient pump QSM, autosampler FTN, column heater CHA, and diode array detector PDAeλ, γ detector Gabi Star (Raytest Isotopenmeßgeräte GmbH, Straubenhardt, Germany), flow rate 0.4 mL/min, eluent: (A): 0.1% acetic acid in MeCN/MeOH 1/1/(B): 0.1% acetic acid in H2O; gradient: t0min 45/55–t0.5min 45/55–t5.5min 95/5–t7.0min 95/5–t7.2min 45/55–t8.5min 45/55). For the identification of degradation products, samples taken after 24 h were additionally subjected to HPLC-HRMS analysis using HPLC system 6. In brief, the NO-COXIBs were converted to the respective hydroxymethyl-substituted compounds and in the presence of cysteine additionally to the cysteine adduct, which could be identified by the respective Δm/z shifts. A detailed comparison of calculated and found m/z-signals is given in Supplementary Material Table S1, and copies of HPLC-HRMS chromatograms and selected spectra are given in Supplementary Material Figures S56–S66.

intact compound (after 8 days (192 h)) | intact compound (after 70 h, absence of cysteine) | intact compound (after 70 h, presence of cysteine) | Structure (SMILES)
57% | – | – | Cc1ccc(-c2c(Cl)c(CO[N+](=O)[O-])nn2-c2ccc(S(C)(=O)=O)cc2)cc1 [5c, {4-Chloro-1-[4-(methylsulfonyl)phenyl]-5-(p-tolyl)-1H-pyrazol-3-yl}methyl nitrate]
– | consumed | quantitatively consumed | CCC(=O)NS(=O)(=O)c1ccc(-n2nc(CO[N+](=O)[O-])cc2-c2ccc(OC)cc2)cc1 [6d, {5-(4-Methoxyphenyl)-1-[4-(N-propionylsulfamoyl)phenyl]-1H-pyrazol-3-yl}methyl nitrate]
